Laboratory results as given in publication PMC11864979, “First-in-class ultralong-target-residence-time p38α inhibitors as a mitosis-targeted therapy for colorectal cancer” (Nature Cancer, 2025).
Where two headings read alike, the source gives them in different places.

Tests used:
Test in all cases: selectivity profiling in a panel of 340 wild-type kinases (Reaction Biology Europe)
Assay type in all cases: binding
340 wild-type kinases [1] = biological target: T1, 340 wild-type kinases (Homo sapiens, UniProt P06213)
T1 construct: purchased Reaction Biology Europe

340 wild-type kinases [2] = biological target: T2, 340 wild-type kinases (Homo sapiens, UniProt P29597)
T2 construct: purchased Reaction Biology Europe

340 wild-type kinases [3] = biological target: T3, 340 wild-type kinases (Homo sapiens, UniProt P31751)
T3 construct: purchased Reaction Biology Europe

340 wild-type kinases [4] = biological target: T4, 340 wild-type kinases (Homo sapiens, UniProt P51617)
T4 construct: purchased Reaction Biology Europe

340 wild-type kinases [5] = biological target: T5, 340 wild-type kinases (Homo sapiens, UniProt P51813)
T5 construct: purchased Reaction Biology Europe
T5 sequence (P51813 1-675): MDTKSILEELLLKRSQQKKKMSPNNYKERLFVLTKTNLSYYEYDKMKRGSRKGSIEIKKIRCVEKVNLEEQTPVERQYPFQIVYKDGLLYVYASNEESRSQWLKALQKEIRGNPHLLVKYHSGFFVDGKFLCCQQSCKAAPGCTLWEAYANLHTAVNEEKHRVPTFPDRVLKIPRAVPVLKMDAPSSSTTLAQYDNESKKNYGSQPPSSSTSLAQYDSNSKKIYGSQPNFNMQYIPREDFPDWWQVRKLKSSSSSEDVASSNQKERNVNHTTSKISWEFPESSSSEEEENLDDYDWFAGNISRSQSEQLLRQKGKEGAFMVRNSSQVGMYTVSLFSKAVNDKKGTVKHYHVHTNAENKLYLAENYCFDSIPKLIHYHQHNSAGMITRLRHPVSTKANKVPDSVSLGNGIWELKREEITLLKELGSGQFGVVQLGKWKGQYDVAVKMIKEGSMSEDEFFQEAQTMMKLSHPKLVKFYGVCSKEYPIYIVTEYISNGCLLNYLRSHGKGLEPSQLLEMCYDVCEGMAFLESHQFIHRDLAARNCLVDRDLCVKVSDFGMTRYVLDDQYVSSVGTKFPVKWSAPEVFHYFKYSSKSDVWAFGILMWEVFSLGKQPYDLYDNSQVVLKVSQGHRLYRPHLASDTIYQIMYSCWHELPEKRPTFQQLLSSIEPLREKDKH

340 wild-type kinases [6] = biological target: T6, 340 wild-type kinases (Homo sapiens, UniProt Q05513)
T6 construct: purchased Reaction Biology Europe
T6 sequence (Q05513 1-592): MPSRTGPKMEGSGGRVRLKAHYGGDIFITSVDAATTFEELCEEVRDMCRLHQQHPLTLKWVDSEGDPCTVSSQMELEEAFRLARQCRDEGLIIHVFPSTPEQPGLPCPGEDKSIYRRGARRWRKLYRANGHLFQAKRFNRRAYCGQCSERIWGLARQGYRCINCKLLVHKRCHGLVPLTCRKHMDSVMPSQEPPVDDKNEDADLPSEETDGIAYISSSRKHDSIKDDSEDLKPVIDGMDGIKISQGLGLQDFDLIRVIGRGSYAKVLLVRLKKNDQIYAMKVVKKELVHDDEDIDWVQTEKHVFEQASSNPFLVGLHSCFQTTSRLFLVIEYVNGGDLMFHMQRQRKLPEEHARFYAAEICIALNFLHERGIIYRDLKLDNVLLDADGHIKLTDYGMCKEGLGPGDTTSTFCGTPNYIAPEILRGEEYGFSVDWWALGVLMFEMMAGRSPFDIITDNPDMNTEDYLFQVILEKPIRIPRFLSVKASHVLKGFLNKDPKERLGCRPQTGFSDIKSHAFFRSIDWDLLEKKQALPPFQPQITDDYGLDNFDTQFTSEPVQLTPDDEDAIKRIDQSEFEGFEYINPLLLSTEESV

340 wild-type kinases [7] = biological target: T7, 340 wild-type kinases (Homo sapiens, UniProt Q13043)
T7 construct: purchased Reaction Biology Europe
T7 sequence (Q13043 1-487): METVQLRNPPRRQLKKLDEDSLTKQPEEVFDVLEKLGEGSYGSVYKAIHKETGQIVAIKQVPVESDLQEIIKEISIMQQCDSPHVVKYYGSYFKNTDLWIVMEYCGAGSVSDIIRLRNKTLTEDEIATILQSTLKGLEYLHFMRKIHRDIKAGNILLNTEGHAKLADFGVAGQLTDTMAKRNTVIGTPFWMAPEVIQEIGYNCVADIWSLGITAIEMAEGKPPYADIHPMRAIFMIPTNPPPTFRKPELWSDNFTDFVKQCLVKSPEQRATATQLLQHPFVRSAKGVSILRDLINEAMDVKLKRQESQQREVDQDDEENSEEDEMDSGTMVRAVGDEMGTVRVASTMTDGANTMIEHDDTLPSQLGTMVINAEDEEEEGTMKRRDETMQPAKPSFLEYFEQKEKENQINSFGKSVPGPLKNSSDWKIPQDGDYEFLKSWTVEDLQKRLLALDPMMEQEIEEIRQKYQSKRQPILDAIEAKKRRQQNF

340 wild-type kinases [8] = biological target: T8, 340 wild-type kinases (Homo sapiens, UniProt Q15208)
T8 construct: purchased Reaction Biology Europe

340 wild-type kinases [9] = biological target: T9, 340 wild-type kinases (Homo sapiens, UniProt Q9H2G2)
T9 construct: purchased Reaction Biology Europe

T3 sequence (P31751 whole entry): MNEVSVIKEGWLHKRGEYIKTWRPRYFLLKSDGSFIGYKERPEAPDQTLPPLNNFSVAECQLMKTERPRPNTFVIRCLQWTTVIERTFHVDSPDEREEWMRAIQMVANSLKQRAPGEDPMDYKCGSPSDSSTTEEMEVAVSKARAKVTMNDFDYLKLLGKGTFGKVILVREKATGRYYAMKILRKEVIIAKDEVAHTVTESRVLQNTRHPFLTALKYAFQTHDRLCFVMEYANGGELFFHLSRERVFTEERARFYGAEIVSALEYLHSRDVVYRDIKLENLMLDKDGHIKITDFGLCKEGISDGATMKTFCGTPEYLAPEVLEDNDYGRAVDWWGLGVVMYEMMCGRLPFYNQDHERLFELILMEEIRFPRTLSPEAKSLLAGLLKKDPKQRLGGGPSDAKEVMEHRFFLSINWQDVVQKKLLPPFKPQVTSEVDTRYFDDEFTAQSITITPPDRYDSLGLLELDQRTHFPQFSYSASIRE
T1 sequence (P06213 28-1382): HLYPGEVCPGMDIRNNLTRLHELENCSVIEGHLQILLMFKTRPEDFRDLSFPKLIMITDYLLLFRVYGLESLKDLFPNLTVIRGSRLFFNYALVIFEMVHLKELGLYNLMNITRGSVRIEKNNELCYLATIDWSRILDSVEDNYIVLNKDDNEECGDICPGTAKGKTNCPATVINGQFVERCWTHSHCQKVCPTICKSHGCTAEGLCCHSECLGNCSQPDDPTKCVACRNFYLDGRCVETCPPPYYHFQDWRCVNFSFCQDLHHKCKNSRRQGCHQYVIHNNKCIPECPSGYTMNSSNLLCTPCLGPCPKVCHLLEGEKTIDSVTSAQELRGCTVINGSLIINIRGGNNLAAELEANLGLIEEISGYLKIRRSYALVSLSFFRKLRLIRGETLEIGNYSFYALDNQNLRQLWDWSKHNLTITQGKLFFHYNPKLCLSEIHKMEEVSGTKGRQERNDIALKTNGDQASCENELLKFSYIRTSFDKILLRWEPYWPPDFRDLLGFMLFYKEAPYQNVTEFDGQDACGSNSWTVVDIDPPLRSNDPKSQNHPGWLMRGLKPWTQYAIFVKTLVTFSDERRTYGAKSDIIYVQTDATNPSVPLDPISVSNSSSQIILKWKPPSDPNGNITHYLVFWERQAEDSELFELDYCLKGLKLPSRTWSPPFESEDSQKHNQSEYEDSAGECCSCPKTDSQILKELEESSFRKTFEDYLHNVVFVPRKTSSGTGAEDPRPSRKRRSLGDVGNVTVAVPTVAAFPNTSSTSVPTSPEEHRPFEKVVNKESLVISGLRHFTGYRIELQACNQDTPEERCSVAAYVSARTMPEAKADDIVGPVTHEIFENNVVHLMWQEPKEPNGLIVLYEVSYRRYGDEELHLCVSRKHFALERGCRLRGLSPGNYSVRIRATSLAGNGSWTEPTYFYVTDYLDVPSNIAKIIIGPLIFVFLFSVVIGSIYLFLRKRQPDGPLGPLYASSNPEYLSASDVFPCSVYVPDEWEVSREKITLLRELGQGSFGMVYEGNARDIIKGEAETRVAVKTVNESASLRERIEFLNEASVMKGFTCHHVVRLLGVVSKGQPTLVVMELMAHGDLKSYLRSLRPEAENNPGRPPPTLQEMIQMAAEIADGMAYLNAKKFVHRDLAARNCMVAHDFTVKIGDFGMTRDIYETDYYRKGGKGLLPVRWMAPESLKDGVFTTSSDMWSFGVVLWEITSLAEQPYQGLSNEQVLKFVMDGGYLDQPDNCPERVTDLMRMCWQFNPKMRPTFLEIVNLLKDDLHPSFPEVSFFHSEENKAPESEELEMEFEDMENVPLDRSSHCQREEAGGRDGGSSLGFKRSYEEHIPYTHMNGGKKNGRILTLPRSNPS
T2 sequence (P29597 whole entry): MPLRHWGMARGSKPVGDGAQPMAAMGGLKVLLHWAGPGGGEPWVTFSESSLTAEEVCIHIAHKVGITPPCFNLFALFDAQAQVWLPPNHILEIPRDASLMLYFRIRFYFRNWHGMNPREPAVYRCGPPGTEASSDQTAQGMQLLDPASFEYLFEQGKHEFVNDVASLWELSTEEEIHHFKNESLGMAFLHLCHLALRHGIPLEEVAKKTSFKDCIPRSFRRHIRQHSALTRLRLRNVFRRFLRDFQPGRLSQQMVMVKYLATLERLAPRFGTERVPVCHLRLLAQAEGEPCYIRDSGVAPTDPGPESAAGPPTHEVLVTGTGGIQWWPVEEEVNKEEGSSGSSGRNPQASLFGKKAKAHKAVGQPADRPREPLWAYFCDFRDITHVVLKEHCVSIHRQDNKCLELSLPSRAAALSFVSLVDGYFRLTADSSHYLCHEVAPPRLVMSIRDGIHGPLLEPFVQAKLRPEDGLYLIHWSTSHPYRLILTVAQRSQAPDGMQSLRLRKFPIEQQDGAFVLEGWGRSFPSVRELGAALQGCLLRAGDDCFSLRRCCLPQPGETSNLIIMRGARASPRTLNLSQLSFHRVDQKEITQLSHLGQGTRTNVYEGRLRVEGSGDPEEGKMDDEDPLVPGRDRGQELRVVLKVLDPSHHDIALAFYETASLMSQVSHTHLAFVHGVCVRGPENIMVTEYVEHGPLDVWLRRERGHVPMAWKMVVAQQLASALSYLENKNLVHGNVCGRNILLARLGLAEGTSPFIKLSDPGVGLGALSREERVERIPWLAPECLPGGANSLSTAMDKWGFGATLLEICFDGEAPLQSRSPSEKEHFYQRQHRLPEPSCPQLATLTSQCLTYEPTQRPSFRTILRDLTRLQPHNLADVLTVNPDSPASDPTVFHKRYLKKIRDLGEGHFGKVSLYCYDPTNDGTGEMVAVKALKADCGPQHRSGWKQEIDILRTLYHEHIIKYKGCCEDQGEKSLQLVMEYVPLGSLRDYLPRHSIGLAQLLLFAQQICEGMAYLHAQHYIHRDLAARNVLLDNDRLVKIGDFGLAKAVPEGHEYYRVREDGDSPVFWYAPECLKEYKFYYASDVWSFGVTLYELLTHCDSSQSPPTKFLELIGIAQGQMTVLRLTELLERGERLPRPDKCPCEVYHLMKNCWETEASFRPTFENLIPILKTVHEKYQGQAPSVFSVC
T4 sequence (P51617 whole entry): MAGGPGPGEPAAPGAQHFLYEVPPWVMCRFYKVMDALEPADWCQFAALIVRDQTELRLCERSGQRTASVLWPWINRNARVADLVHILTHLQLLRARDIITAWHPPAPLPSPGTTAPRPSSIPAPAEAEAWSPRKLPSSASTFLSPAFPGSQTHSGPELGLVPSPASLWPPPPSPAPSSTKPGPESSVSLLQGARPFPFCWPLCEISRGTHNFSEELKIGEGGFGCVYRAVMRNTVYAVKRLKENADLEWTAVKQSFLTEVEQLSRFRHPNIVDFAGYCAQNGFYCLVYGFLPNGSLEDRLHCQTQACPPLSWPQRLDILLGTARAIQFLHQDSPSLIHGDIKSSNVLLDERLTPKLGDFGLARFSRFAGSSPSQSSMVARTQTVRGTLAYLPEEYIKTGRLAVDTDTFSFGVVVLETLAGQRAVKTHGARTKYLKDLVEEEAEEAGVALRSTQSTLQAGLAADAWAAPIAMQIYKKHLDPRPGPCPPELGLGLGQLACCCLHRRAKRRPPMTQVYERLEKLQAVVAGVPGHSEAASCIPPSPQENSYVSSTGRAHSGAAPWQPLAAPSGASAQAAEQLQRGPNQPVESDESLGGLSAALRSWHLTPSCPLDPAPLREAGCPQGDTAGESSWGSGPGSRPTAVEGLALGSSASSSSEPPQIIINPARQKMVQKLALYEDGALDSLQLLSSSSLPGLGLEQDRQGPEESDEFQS
T8 sequence (Q15208 whole entry): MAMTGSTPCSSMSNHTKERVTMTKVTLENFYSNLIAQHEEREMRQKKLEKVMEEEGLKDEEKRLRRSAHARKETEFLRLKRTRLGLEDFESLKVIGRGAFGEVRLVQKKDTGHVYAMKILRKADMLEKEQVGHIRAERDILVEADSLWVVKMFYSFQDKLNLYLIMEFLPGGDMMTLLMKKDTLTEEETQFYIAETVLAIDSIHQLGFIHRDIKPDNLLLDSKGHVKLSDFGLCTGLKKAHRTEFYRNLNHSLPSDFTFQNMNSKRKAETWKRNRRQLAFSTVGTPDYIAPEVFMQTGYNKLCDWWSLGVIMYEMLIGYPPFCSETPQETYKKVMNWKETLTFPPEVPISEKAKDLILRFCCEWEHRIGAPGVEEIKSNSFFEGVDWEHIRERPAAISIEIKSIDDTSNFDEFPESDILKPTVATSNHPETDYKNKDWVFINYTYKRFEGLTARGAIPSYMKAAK

**Q.** Which results are given for `CNC(=O)c1ccc2c(c1)C(=O)c1ccc(Nc3ccc(F)c(NC(=O)C4CC4)c3)cc1CC2` [Compound 2015]?
**A.** remaining activity at 0.2 µM (340 wild-type kinases [1]; 0.2 µM 2015, read-out: INSR residual activity): 99.9%; remaining activity at 1 µM (340 wild-type kinases [1]; 1 µM 2015, read-out: INSR residual activity): 99.3%; remaining activity at 0.2 µM (340 wild-type kinases [1]; INSR, 0.2 µM, read-out: residual activity): 99.9%; remaining activity at 1 µM (340 wild-type kinases [1]; INSR, 1 µM, read-out: residual activity): 99.3%; remaining activity at 0.2 µM (340 wild-type kinases [2]; 0.2 µM 2015, read-out: TYK2 residual activity): 103%; remaining activity at 1 µM (340 wild-type kinases [2]; 1 µM 2015, read-out: TYK2 residual activity): 96.3%; remaining activity at 0.2 µM (340 wild-type kinases [2]; TYK2, 0.2 µM, read-out: residual activity): 103%; remaining activity at 1 µM (340 wild-type kinases [2]; TYK2, 1 µM, read-out: residual activity): 96.3%; remaining activity at 0.2 µM (340 wild-type kinases [3]; 0.2 µM 2015, read-out: AKT2 residual activity): 64.5%; remaining activity at 1 µM (340 wild-type kinases [3]; 1 µM 2015, read-out: AKT2 residual activity): 93%; remaining activity at 0.2 µM (340 wild-type kinases [3]; AKT2, 0.2 µM, read-out: residual activity): 64.5%; remaining activity at 1 µM (340 wild-type kinases [3]; AKT2, 1 µM, read-out: residual activity): 93%; remaining activity at 0.2 µM (340 wild-type kinases [4]; 0.2 µM 2015, read-out: IRAK1 residual activity): 108%; remaining activity at 1 µM (340 wild-type kinases [4]; 1 µM 2015, read-out: IRAK1 residual activity): 94.2%; remaining activity at 0.2 µM (340 wild-type kinases [4]; IRAK1, 0.2 µM, read-out: residual activity): 108%; remaining activity at 1 µM (340 wild-type kinases [4]; IRAK1, 1 µM, read-out: residual activity): 94.2%; remaining activity at 0.2 µM (340 wild-type kinases [5]; 0.2 µM 2015, read-out: BMX residual activity): 96.3%; remaining activity at 1 µM (340 wild-type kinases [5]; 1 µM 2015, read-out: BMX residual activity): 86.5%; remaining activity at 0.2 µM (340 wild-type kinases [5]; BMX, 0.2 µM, read-out: residual activity): 96.3%; remaining activity at 1 µM (340 wild-type kinases [5]; BMX, 1 µM, read-out: residual activity): 86.5%; remaining activity at 0.2 µM (340 wild-type kinases [6]; 0.2 µM 2015, read-out: PKCzeta residual activity): 126%; remaining activity at 0.2 µM (340 wild-type kinases [6]; 0.2 µM 2015, read-out: PKMzeta residual activity): 106%; remaining activity at 1 µM (340 wild-type kinases [6]; 1 µM 2015, read-out: PKCzeta residual activity): 111%; remaining activity at 1 µM (340 wild-type kinases [6]; 1 µM 2015, read-out: PKMzeta residual activity): 102%; remaining activity at 0.2 µM (340 wild-type kinases [6]; PKCzeta, 0.2 µM, read-out: residual activity): 126%; remaining activity at 1 µM (340 wild-type kinases [6]; PKCzeta, 1 µM, read-out: residual activity): 111%; remaining activity at 0.2 µM (340 wild-type kinases [7]; 0.2 µM 2015, read-out: MST1 residual activity): 98.1%; remaining activity at 1 µM (340 wild-type kinases [7]; 1 µM 2015, read-out: MST1 residual activity): 100%; remaining activity at 0.2 µM (340 wild-type kinases [7]; MST1, 0.2 µM, read-out: residual activity): 98.1%; remaining activity at 1 µM (340 wild-type kinases [7]; MST1, 1 µM, read-out: residual activity): 100%; remaining activity at 0.2 µM (340 wild-type kinases [8]; 0.2 µM 2015, read-out: NDR1 residual activity): 91.9%; remaining activity at 1 µM (340 wild-type kinases [8]; 1 µM 2015, read-out: NDR1 residual activity): 94%; remaining activity at 0.2 µM (340 wild-type kinases [8]; NDR1, 0.2 µM, read-out: residual activity): 91.9%; remaining activity at 1 µM (340 wild-type kinases [8]; NDR1, 1 µM, read-out: residual activity): 94%; remaining activity at 0.2 µM (340 wild-type kinases [9]; 0.2 µM 2015, read-out: SLK residual activity): 75%; remaining activity at 1 µM (340 wild-type kinases [9]; 1 µM 2015, read-out: SLK residual activity): 75.3%; remaining activity at 0.2 µM (340 wild-type kinases [9]; SLK, 0.2 µM, read-out: residual activity): 75%; remaining activity at 1 µM (340 wild-type kinases [9]; SLK, 1 µM, read-out: residual activity): 75.3%
